Where two headings read alike, the source gives them in different places.
Tests used:
[1] = tested on: Klebsiella E70; assay: MIC of ampicillin alone or in presence of compound (synergistic activity, Demonstration 1), Klebsiella E70; assay type: cell-based, Kleb. aerogenes; settings: E70, compound alone
Method: (§1) The minimum inhibitory concentration (MIC) of ampicillin alone or in the presence of certain compounds of the invention was determined for several strains of bacteria.

[2] = tested on: Staph. aureus Russell; assay: MIC of ampicillin alone or in presence of compound (synergistic activity, Demonstration 2), Staph. aureus Russell; assay type: cell-based; settings: Staphylococcus aureus
Method: (§2) The MIC of ampicillin alone or in the presence of certain compounds of the invention was determined for certain Gram positive and Gram negative bacteria.

[3] = tested on: Kleb. aerogenes E70; assay: MIC of ampicillin alone or in presence of compound (synergistic activity, Demonstration 2), Kleb. aerogenes E70; assay type: cell-based; settings: Klebsiella aerogenes
Method: as §2

[4] = tested on: Staph. Russell; assay: MIC of ampicillin alone or in presence of compound (synergistic activity, Demonstration 1), Staph. Russell; assay type: cell-based; settings: Staphylococcus aureus
Method: as §1

[5] = tested on: Proteus C889; assay: MIC of ampicillin alone or in presence of compound (synergistic activity, Demonstration 1), Proteus C889; assay type: cell-based
Method: as §1

[6] = tested on: E.coli JT39; assay: MIC of ampicillin alone or in presence of compound (synergistic activity, Demonstration 1), E.coli JT39; assay type: cell-based; settings: Escherichia coli
Method: as §1

[7] = tested on: E. coli JT39; assay: MIC of ampicillin alone or in presence of compound (synergistic activity, Demonstration 2), E. coli JT39; assay type: cell-based; settings: Escherichia coli
Method: as §2

[8] = tested on: E.coli E96; assay: In-vivo effect, CD50 in mice infected intraperitoneally with E.coli E96; settings: Escherichia coli, E96, sc, subcutaneous at 1 and 5 hours post infection, no synergist, read-out: CD50 of amoxycillin alone
Method: The CD50 in mice infected intraperitoneally with E.coli E96 was determined. Amoxycillin and the synergists were dosed subcutaneously at 1 and 5 hours post infection. The synergists were used at 2 mg/kg.

[9] = compound alone, read-out: MIC, compound alone
[10] = compound alone, E. coli JT39, read-out: MIC, compound alone
[11] = ampicillin alone, read-out: MIC of ampicillin alone
[12] = compound conc. 0 μg/ml, read-out: MIC Ampicillin (alone)

| Compound | MIC [2, 9] [µg/mL] | MIC [3, 9] [µg/mL] | MIC [7, 9] [µg/mL] | further results |
| --- | --- | --- | --- | --- |
| O=C(NCSC/C=C1\O[C@@H]2CC(=O)N2[C@H]1C(=O)O)c1ccccc1 [Example 6, Sodium 9-deoxy-9-thio (N-benzoylaminomethyl) clavulanate] | 16 | 500 | – | MIC [1]: 500 µg/mL; MIC [4, 9]: 16 µg/mL; MIC [5, 9]: 125 µg/mL; MIC [6, 10]: 250 µg/mL |
| CC1(C)S[C@@H]2[C@H](NC(=O)[C@H](N)c3ccccc3)C(=O)N2[C@H]1C(=O)O [Ampicillin, ampicillin, reference compound] | – | – | – | MIC [2, 11]: 125 to 500 µg/mL; MIC [3, 11]: 500 to 2000 µg/mL; MIC [4, 12]: 500 µg/mL; MIC [7, 11]: ≥ 2000 µg/mL; MIC Ampicillin (alone) ([5]; compound conc. 0 μg/ml): 1000 µg/mL; MIC [5, 12]: > 2000 µg/mL; MIC ([6]; compound conc. 0 μg/ml, E.coli JT39, read-out: MIC Ampicillin (alone)): 2000 µg/mL |
| CC1(C)S[C@@H]2[C@H](NC(=O)[C@H](N)c3ccc(O)cc3)C(=O)N2[C@H]1C(=O)O [Amoxycillin, amoxycillin] | – | – | – | ED50 [8]: > 1000 mg/kg |
| O=C(O)[C@H]1/C(=C/CSCN2CCCC2=O)O[C@@H]2CC(=O)N21 [Example 8, Sodium 9-(2-oxopyrrolidin-1-ylmethylthio)-9-deoxyclavulate] | 62.5 | 250 | 250 | – |
| O=C(O)[C@H]1/C(=C/CS(=O)(=O)CN2CCCC2=O)O[C@@H]2CC(=O)N21 [Example 10, Sodium 9-(2-oxopyrrolidin-1-ylmethylsulphonyl)-9-deoxyclavulanate] | 31.2 | 62.5 | 62.5 | – |
| CC(=O)NCSC/C=C1\O[C@@H]2CC(=O)N2[C@H]1C(=O)O [Example 20, Sodium 9-(acetamidomethylthio)-9-deoxyclavulanate] | 4 | 62.5 | 62.5 | – |
| O=C1CC(SC/C=C2\O[C@@H]3CC(=O)N3[C@H]2C(=O)O)N1 (some centres unmarked) [Example 2, Sodium 9-deoxy-9-thio-(azetidin-2'-on-4'-yl) clavulanate] | 31.2 | 16 | – | MIC [1]: 15 µg/mL; MIC [4, 9]: 31.2 µg/mL; MIC [5, 9]: 15 µg/mL; MIC [6, 10]: 31.2 µg/mL |
| CC(=O)NC[S+]([O-])C/C=C1\O[C@@H]2CC(=O)N2[C@H]1C(=O)O (some centres unmarked) [Example 21, Sodium 9-(acetamidomethylsulphinyl)-9-deoxyclavulanate] | 125 | 125 | 62.5 | – |
| CC(=O)NCS(=O)(=O)C/C=C1\O[C@@H]2CC(=O)N2[C@H]1C(=O)O [Example 22, Sodium 9-(acetamidomethylsuphonyl)-9-deoxyclavulanate] | 62.5 | 62.5 | 31.2 | – |
| CC(NC=O)SC/C=C1\O[C@@H]2CC(=O)N2[C@H]1C(=O)O (some centres unmarked) [Example 13, Sodium 9-(1-formamidoethylthio)-9-deoxyclavulanate] | 16 | 62.5 | 125 | – |
